Test results taken from ChEMBL document CHEMBL1135447, “Design and synthesis of tricyclic compounds with enone functionalities in rings A and C: a novel class of highly active inhibitors of nitric oxide production in mouse macrophages” (J Med Chem, 2002).

Organism: Mus musculus
Test: Inhibitory activity against nitric oxide production induced by interferon-gamma (IFN-gamma) in mouse macrophages
Assay type: functional

Compound: CC1(C)C(=O)C(C#N)=C[C@]2(C)C3=CC(=O)C[C@@H](O)[C@]3(C)CC[C@@H]12 (racemic)
- IC50 (Mus musculus): 75 nM

Compound: CC1(C)C(=O)C(C#N)=C[C@]2(C)C3=CC(=O)C(C(N)=O)=C[C@]3(C)CC[C@@H]12 (racemic)
- IC50 (Mus musculus): 61 nM

Compound: CC1(C)C(=O)C(C#N)=C[C@]2(C)C3=CC(=O)C(C#N)=C[C@]3(C)CC[C@@H]12 (racemic)
- IC50 (Mus musculus): 2.1 nM

Compound: CC1(C)C(=O)C(C#N)=C[C@]2(C)C3=CC(=O)C=C[C@]3(C)CC[C@@H]12 (racemic)
- IC50 (Mus musculus): 61 nM

Compound: CC1(C)C(=O)C(C#N)=C[C@]2(C)C3=CC(=O)C=C[C@]3(C)CC[C@@H]12 (stereo in doubt; (+)-6)
- IC50: 58 nM

Compound: CC1(C)C(=O)C(C#N)=C[C@]2(C)C3=CCC[C@@H](O)[C@]3(C)CC[C@@H]12 (racemic)
- IC50 (Mus musculus): 310 nM

Compound: COC(=O)C1=C[C@]2(C)CC[C@H]3C(C)(C)C(=O)C(C#N)=C[C@]3(C)C2=CC1=O (racemic)
- IC50 (Mus musculus): 91 nM

Compound: CC(=O)O[C@@H]1CC(=O)C=C2[C@@]3(C)C=C(C#N)C(=O)C(C)(C)[C@@H]3CC[C@]21C (racemic)
- IC50 (Mus musculus): 53 nM

Compound: CC1(C)C(=O)C(C#N)=C[C@]2(C)C3=CC(=O)C=C[C@]3(C)CC[C@@H]12 (stereo in doubt; (-)-6)
- IC50: 64 nM

Compound: CC1(C)CC[C@]2(C(=O)O)CC[C@]3(C)[C@H](C(=O)C=C4[C@@]5(C)C=C(C#N)C(=O)C(C)(C)[C@@H]5CC[C@]43C)[C@@H]2C1 [BARDOXOLONE]
- IC50 (Mus musculus): 0.5 nM

Compound: CC1(C)CC[C@]2(C(=O)O)CC[C@]3(C)C(=CC[C@@H]4[C@@]5(C)CC[C@H](O)C(C)(C)[C@@H]5CC[C@]43C)[C@@H]2C1 [OLEANOLIC_ACID]
- IC50 (Mus musculus): > 40000 nM

Compound: CC1(C)C(=O)C(C#N)=C[C@]2(C)C3=CC(=O)C(C(=O)O)=C[C@]3(C)CC[C@@H]12 (racemic)
- IC50 (Mus musculus): 1600 nM

Compound: CC(=O)O[C@@H]1CCC=C2[C@@]3(C)C=C(C#N)C(=O)C(C)(C)[C@@H]3CC[C@]21C (racemic)
- IC50 (Mus musculus): 480 nM
